US10538555B2, “Macrocyclic inhibitors of the PD-1/PD-L1 and CD80(B7-1)/PD-L1 protein/protein interactions” (BRISTOL-MYERS SQUIBB COMPANY, priority 2014, dated 2020)
Where a SMILES comes first, the peptide text is derived from it. Bridges are numbered along the chain shown (N, C = ends). [ ]: non-standard residue; d: D form. ξ: configuration not given here. Trp(1-CH2COOH) = N[C@@H](Cc1cn(CC(=O)O)c2ccccc12)C(=O)O; NMeW = CN[C@@H](Cc1c[nH]c2ccccc12)C(=O)O; Bta = N[C@@H](Cc1csc2ccccc12)C(=O)O; Hyp = O=C(O)[C@@H]1C[C@@H](O)CN1; NMeE = CN[C@@H](CCC(=O)O)C(=O)O; NMeL = CN[C@@H](CC(C)C)C(=O)O; NMeNle = CCCC[C@H](NC)C(=O)O; NMeA = CN[C@@H](C)C(=O)O; Dab = NCC[C@H](N)C(=O)O; Dap = NC[C@H](N)C(=O)O; ξP = O=C(O)C1CCCN1; Sar = CNCC(=O)O

These compounds were tested against T1, Human PD-L1/PD-1 (Homo sapiens, UniProt Q9NZQ7) (assay: HTRF Human PD-L1/PD-1 binding assay (PD-1-Ig/PD-L1-His)). Details: PD-L1-His 10 nM, PD-1-Ig 20 nM; class symbol; read-out: HTRF Human PD-L1/PD-1 Binding Assay IC50 Range.
T1 construct: TVMV protease cleavage site (C); made in house; host or cells: HEK293T cells
T1 sequence (Q9NZQ7 with tags, fused parts or gaps): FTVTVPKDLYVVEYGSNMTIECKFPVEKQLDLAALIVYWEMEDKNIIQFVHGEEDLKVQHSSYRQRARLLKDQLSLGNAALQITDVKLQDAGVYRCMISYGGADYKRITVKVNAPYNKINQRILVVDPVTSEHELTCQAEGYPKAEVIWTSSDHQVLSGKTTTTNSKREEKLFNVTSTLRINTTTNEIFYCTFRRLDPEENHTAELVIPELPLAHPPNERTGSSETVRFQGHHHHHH
Summary of the method: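 Compound preincubated 15 min with PD-L1-His (10 nM final), then PD-1-Ig (20 nM final) added for 15 min in dPBS with 0.1% BSA and 0.05% Tween-20. Detection by Eu-cryptate anti-Ig (1 nM) and APC anti-His (20 nM) after 30 min; 665/620 nm HTRF ratio. Proteins expressed in HEK293T.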

Q: Which IC50 does the source give for `CCCC[C@H]1C(=O)N(C)[C@@H](CCC(=O)O)C(=O)N[C@@H](CN)C(=O)N[C@H](C(=O)NCC(N)=O)CSCC(=O)N[C@@H](Cc2ccc(O)cc2)C(=O)N(C)[C@@H](C)C(=O)N[C@@H](CC(N)=O)C(=O)N2CCC[C@H]2C(=O)N[C@@H](Cc2c[nH]cn2)C(=O)N[C@@H](CCC(=O)O)C(=O)N2C[C@H](O)C[C@H]2C(=O)N[C@@H](Cc2c[nH]c3ccccc23)C(=O)N[C@@H](CCN)C(=O)N[C@@H](Cc2c[nH]c3ccccc23)C(=O)N1C` [Example 5249] ({CH2CO}-Y[NMeA]NPHE[Hyp]W[Dab]W[NMeNle][NMeE][Dap]CG-NH2; thioether N-14) here?
A: The IC50 was 0.01 to 0.0999 µM.

Q: Which IC50 does the source give for `CCCC[C@H]1C(=O)N(C)[C@@H](CCCC)C(=O)N[C@@H](CCC(=O)O)C(=O)N[C@H](C(=O)NCC(N)=O)CSCC(=O)N[C@@H](Cc2ccc(O)cc2)C(=O)N(C)[C@@H](C)C(=O)N[C@@H](CC(N)=O)C(=O)N2CCC[C@H]2C(=O)N[C@@H](CO)C(=O)N[C@@H](CCC(N)=O)C(=O)N2C[C@H](O)C[C@H]2C(=O)N[C@@H](Cc2c[nH]c3ccccc23)C(=O)N[C@@H](CCN)C(=O)N[C@@H](Cc2c[nH]c3ccccc23)C(=O)N1C` [Example 5251] ({CH2CO}-Y[NMeA]NPSQ[Hyp]W[Dab]W[NMeNle][NMeNle]ECG-NH2; thioether N-14) here?
A: Its IC50 is 0.001 to 0.0099 µM.

Q: Which IC50 does the source give for `CCCC[C@H]1C(=O)N(C)[C@@H](CCCC)C(=O)N[C@@H](CCC(=O)O)C(=O)N[C@H](C(=O)NCC(N)=O)CSCC(=O)N[C@@H](Cc2ccc(O)cc2)C(=O)N(C)[C@@H](C)C(=O)N[C@@H](CC(=O)O)C(=O)N2CCC[C@H]2C(=O)N[C@@H](CO)C(=O)N[C@@H](CCC(=O)O)C(=O)N2C[C@H](O)C[C@H]2C(=O)N[C@@H](Cc2c[nH]c3ccccc23)C(=O)N[C@@H](CCN)C(=O)N[C@@H](Cc2c[nH]c3ccccc23)C(=O)N1C` [Example 5252] ({CH2CO}-Y[NMeA]DPSE[Hyp]W[Dab]W[NMeNle][NMeNle]ECG-NH2; thioether N-14) here?
A: The IC50 was 0.001 to 0.0099 µM.

Q: With `CCCC[C@H]1C(=O)N(C)[C@@H](CCCC)C(=O)N[C@@H](CN)C(=O)N[C@H](C(=O)NCC(N)=O)CSCC(=O)N[C@@H](Cc2ccc(O)cc2)C(=O)N(C)[C@@H](C)C(=O)N[C@@H](CC(N)=O)C(=O)N2CCC[C@H]2C(=O)N[C@@H](CN)C(=O)N[C@@H](CCC(N)=O)C(=O)N2C[C@H](O)C[C@H]2C(=O)N[C@@H](Cc2c[nH]c3ccccc23)C(=O)N[C@@H](CO)C(=O)N[C@@H](Cc2cn(CC(=O)O)c3ccccc23)C(=O)N1C` [Example 5253] ({CH2CO}-Y[NMeA]NP[Dap]Q[Hyp]WS[Trp(1-CH2COOH)][NMeNle][NMeNle][Dap]CG-NH2; thioether N-14) as the compound, how does the IC50 read?
A: Its IC50 is 0.001 to 0.0099 µM.

Q: `CCCC[C@H]1C(=O)N(C)[C@@H](CCCC)C(=O)N[C@@H](CCC(=O)O)C(=O)N[C@H](C(=O)NCC(N)=O)CSCC(=O)N[C@@H](Cc2ccc(O)cc2)C(=O)N(C)[C@@H](C)C(=O)N[C@@H](CC(=O)O)C(=O)N2CCC[C@H]2C(=O)N[C@@H](CO)C(=O)N[C@@H](CC(C)C)C(=O)N2C[C@H](O)C[C@H]2C(=O)N[C@@H](Cc2c[nH]c3ccccc23)C(=O)N[C@@H](CCC(=O)O)C(=O)N[C@@H](Cc2c[nH]c3ccccc23)C(=O)N1C` [Example 5254] ({CH2CO}-Y[NMeA]DPSL[Hyp]WEW[NMeNle][NMeNle]ECG-NH2; thioether N-14) was tested. Which IC50 did it give?
A: The IC50 was 0.01 to 0.0999 µM.

Q: With `CCCC[C@H]1C(=O)N(C)[C@@H](CCCC)C(=O)N[C@@H](CCC(=O)O)C(=O)N[C@H](C(=O)NCC(N)=O)CSCC(=O)N[C@@H](Cc2ccc(O)cc2)C(=O)N(C)[C@@H](C)C(=O)N[C@@H](CC(=O)O)C(=O)N2CCC[C@H]2C(=O)N[C@@H](Cc2c[nH]cn2)C(=O)N[C@@H](CCCCNC(C)=O)C(=O)N2C[C@H](O)C[C@H]2C(=O)N[C@@H](Cc2c[nH]c3ccccc23)C(=O)N[C@@H](CO)C(=O)N[C@@H](Cc2c[nH]c3ccccc23)C(=O)N1C` [Example 5255] ({CH2CO}-Y[NMeA]DPHK(Ac)[Hyp]WSW[NMeNle][NMeNle]ECG-NH2; thioether N-14) as the compound, how does the IC50 read?
A: Its IC50 is 0.001 to 0.0099 µM.

Q: For `CCCC[C@H]1C(=O)N(C)[C@@H](CCCC)C(=O)N[C@@H](CCCNC(=N)N)C(=O)N[C@H](C(=O)NCC(N)=O)CSCC(=O)N[C@@H](Cc2ccc(O)cc2)C(=O)N(C)[C@@H](C)C(=O)N[C@@H](CC(=O)O)C(=O)N2CCC[C@H]2C(=O)N[C@@H](Cc2c[nH]cn2)C(=O)N[C@@H](CCCCN)C(=O)N2C[C@H](O)C[C@H]2C(=O)N[C@@H](Cc2c[nH]c3ccccc23)C(=O)N[C@@H](CCCCN)C(=O)N[C@@H](Cc2csc3ccccc23)C(=O)N1C` [Example 5256], which IC50 is on record?
A: Its IC50 is 0.01 to 0.0999 µM.

Q: `CCCC[C@H]1C(=O)N(C)[C@@H](CCCC)C(=O)N[C@@H](CCC(=O)O)C(=O)N[C@H](C(=O)NCC(N)=O)CSCC(=O)N[C@@H](Cc2ccc(O)cc2)C(=O)N(C)[C@@H](C)C(=O)N[C@@H](CC(=O)O)C(=O)N2CCC[C@H]2C(=O)N[C@@H](CN)C(=O)N[C@@H](CC(C)C)C(=O)N2C[C@H](O)C[C@H]2C(=O)N[C@@H](Cc2c[nH]c3ccccc23)C(=O)N[C@@H](CCC(=O)O)C(=O)N[C@@H](Cc2c[nH]c3ccccc23)C(=O)N1C` [Example 5257] ({CH2CO}-Y[NMeA]DP[Dap]L[Hyp]WEW[NMeNle][NMeNle]ECG-NH2; thioether N-14) was tested. Which IC50 did it give?
A: Its IC50 is 0.01 to 0.0999 µM.

Q: `CCCC[C@H]1C(=O)N(C)[C@@H](CCCC)C(=O)N[C@@H](CC(C)C)C(=O)N[C@H](C(=O)NCC(N)=O)CSCC(=O)N[C@@H](Cc2ccc(O)cc2)C(=O)N(C)[C@@H](C)C(=O)N[C@@H](CC(N)=O)C(=O)N2CCC[C@H]2C(=O)N[C@@H](CN)C(=O)N[C@@H](CCC(N)=O)C(=O)N2C[C@H](O)C[C@H]2C(=O)N[C@@H](Cc2c[nH]c3ccccc23)C(=O)N[C@@H](CCN)C(=O)N[C@@H](Cc2cn(CC(=O)O)c3ccccc23)C(=O)N1C` [Example 5259] ({CH2CO}-Y[NMeA]NP[Dap]Q[Hyp]W[Dab][Trp(1-CH2COOH)][NMeNle][NMeNle]LCG-NH2; thioether N-14) was tested. Which IC50 did it give?
A: Its IC50 is 0.001 to 0.0099 µM.

Q: With `CCCC[C@H]1C(=O)N(C)[C@@H](CCCC)C(=O)N[C@@H](CCC(=O)O)C(=O)N[C@H](C(=O)NCC(N)=O)CSCC(=O)N[C@@H](Cc2ccc(O)cc2)C(=O)N(C)[C@@H](C)C(=O)N[C@@H](CC(=O)O)C(=O)N2CCC[C@H]2C(=O)N[C@@H](CO)C(=O)N[C@@H](CCC(=O)O)C(=O)N2C[C@H](O)C[C@H]2C(=O)N[C@@H](Cc2c[nH]c3ccccc23)C(=O)N[C@@H](CCC(=O)O)C(=O)N[C@@H](Cc2c[nH]c3ccccc23)C(=O)N1C` [Example 5260] ({CH2CO}-Y[NMeA]DPSE[Hyp]WEW[NMeNle][NMeNle]ECG-NH2; thioether N-14) as the compound, how does the IC50 read?
A: The IC50 was 0.001 to 0.0099 µM.

Q: How did the IC50 turn out when `CCCC[C@H]1C(=O)N(C)[C@@H](CCCC)C(=O)N(C)CC(=O)N[C@H](C(=O)NCC(N)=O)CSCC(=O)N[C@@H](Cc2ccc(O)cc2)C(=O)N(C)[C@@H](C)C(=O)N[C@@H](CC(N)=O)C(=O)N2CCC[C@H]2C(=O)N[C@@H](Cc2c[nH]cn2)C(=O)N[C@@H](CCC(N)=O)C(=O)N2C[C@H](O)C[C@H]2C(=O)N[C@@H](Cc2c[nH]c3ccccc23)C(=O)N[C@@H](CO)C(=O)N[C@@H](Cc2c[nH]c3ccccc23)C(=O)N1C` [Example 5263] ({CH2CO}-Y[NMeA]NPHQ[Hyp]WSW[NMeNle][NMeNle][Sar]CG-NH2; thioether N-14) was run?
A: Its IC50 is 1 to 10 µM.

Q: With `CCCC[C@H]1C(=O)N(C)[C@@H](CCCC)C(=O)N(C)[C@@H](CC(C)C)C(=O)N[C@H](C(=O)NCC(N)=O)CSCC(=O)N[C@@H](Cc2ccc(O)cc2)C(=O)N(C)[C@@H](C)C(=O)N[C@@H](CC(N)=O)C(=O)N2CCC[C@H]2C(=O)N[C@@H](Cc2c[nH]cn2)C(=O)N[C@@H](CCC(=O)O)C(=O)N2C[C@H](O)C[C@H]2C(=O)N[C@@H](Cc2c[nH]c3ccccc23)C(=O)N[C@@H](CCN)C(=O)N[C@@H](Cc2csc3ccccc23)C(=O)N1C` [Example 5264] ({CH2CO}-Y[NMeA]NPHE[Hyp]W[Dab][Bta][NMeNle][NMeNle][NMeL]CG-NH2; thioether N-14) as the compound, how does the IC50 read?
A: Its IC50 is 1 to 10 µM.

Q: With `CCCC[C@H]1C(=O)N[C@@H](CC(C)C)C(=O)N[C@H](C(=O)NCC(N)=O)CSCC(=O)N[C@@H](Cc2ccc(O)cc2)C(=O)N(C)[C@@H](C)C(=O)N[C@@H](CC(N)=O)C(=O)N2CCCC2C(=O)N[C@@H](CN)C(=O)N[C@@H](CC(C)C)C(=O)N2C[C@H](O)C[C@H]2C(=O)N[C@@H](Cc2c[nH]c3ccccc23)C(=O)N[C@@H](CCN)C(=O)N(C)[C@@H](Cc2c[nH]c3ccccc23)C(=O)N(C)[C@@H](CCCC)C(=O)N1C` (stereo partly drawn) [Example 5265] ({CH2CO}-Y[NMeA]N[ξP][Dap]L[Hyp]W[Dab][NMeW][NMeNle][NMeNle]LCG-NH2; thioether N-14) as the compound, how does the IC50 read?
A: Its IC50 is 0.01 to 0.0999 µM.

Q: For `CCCC[C@H]1C(=O)N(C)[C@@H](CCCC)C(=O)N[C@@H](CC(C)C)C(=O)N[C@H](C(=O)NCC(N)=O)CSCC(=O)N[C@@H](Cc2ccc(O)cc2)C(=O)N(C)[C@@H](C)C(=O)N[C@@H](CC(N)=O)C(=O)N2CCC[C@H]2C(=O)N[C@@H](CC(N)=O)C(=O)N[C@@H](CCC(N)=O)C(=O)N2C[C@H](O)C[C@H]2C(=O)N[C@@H](Cc2c[nH]c3ccccc23)C(=O)N[C@@H](CCN)C(=O)N[C@@H](Cc2cn(CC(=O)O)c3ccccc23)C(=O)N1C` [Example 6118] ({CH2CO}-Y[NMeA]NPNQ[Hyp]W[Dab][Trp(1-CH2COOH)][NMeNle][NMeNle]LCG-NH2; thioether N-14), which IC50 is on record?
A: Its IC50 is 0.001 to 0.0099 µM.

Same assay, conditions: PD-L1-His 10 nM, PD-1-Ig 20 nM; read-out: HTRF Human PD-L1/PD-1 Binding Assay IC50

Q: `CCCC[C@H]1C(=O)N(C)[C@@H](CCCC)C(=O)N[C@@H](CC(C)C)C(=O)N[C@H](C(=O)NCC(N)=O)CSCC(=O)N[C@@H](Cc2ccc(O)cc2)C(=O)N(C)[C@@H](C)C(=O)N[C@@H](CC(N)=O)C(=O)N2CCC[C@H]2C(=O)N(C)CC(=O)N[C@@H](CCC(N)=O)C(=O)N2C[C@H](O)C[C@H]2C(=O)N[C@@H](Cc2c[nH]c3ccccc23)C(=O)N[C@@H](CO)C(=O)N[C@@H](Cc2c[nH]c3ccccc23)C(=O)N1C` [Example 5262] ({CH2CO}-Y[NMeA]NP[Sar]Q[Hyp]WSW[NMeNle][NMeNle]LCG-NH2; thioether N-14) was tested. Which IC50 did it give?
A: The IC50 was 0.101 µM.
